{"source": "patent US11779597B2", "about": "“Method of treating Parkinson's and other neurodegenerative diseases” (Vector Vitale IP LLC, priority 2019, dated 2023)", "key": {"[1]": {"tested_on": "human T-lymphocytes (CD3+)", "assay": "Spontaneous and PHA-induced proliferative activity and activation-induced apoptosis of T-lymphocytes", "type": "cell-based", "design": "activation-induced T-cell apoptosis: dose or concentration left out as unconfirmed", "protocol": "Materials and Methods: Peripheral blood mononuclear cells were isolated from a healthy donor by density gradient centrifugation over Histopaque-1077 (Sigma, USA). Phytohemagglutinin (PHA) (Sigma, USA) was used to activate the proliferative activity of T-lymphocytes. The cells were exposed to the action of both preparations for 48 hours. A stimulatory (with the addition of the drugs as single components) and costimulatory (with the addition of the drugs in combination with PHA) effects were assessed. CD3 phenotypic marker was used to selectively measure proliferative activity of T-lymphocytes. The T-cell proliferative activity was assessed by analyzing the DNA status of CD3+ cells using a flow cytometry technique. The results are presented in the form of a proliferative index, calculated by the following formula: […]"}, "[2]": {"tested_on": "LPS rat models of parkinsonism", "assay": "Apomorphine test in LPS rat models of parkinsonism", "type": "in vivo", "protocol": "Chronic dopamine deficiency of the left hemisphere was modeled by unilateral destruction of dopaminergic neurons in the Substantia nigra pars compacta portion of the brain. It was induced by stereotactic microinjections of 10 μg endotoxin (lipopolysaccharide) (Lipopolysaccharides from Escherichia coli O111:B4, cat. L2630 Sigma) dissolved in 2 μl sterile 0.9% NaCl (Infuzia CJSC, Ukraine). The solution was prepared on the day of a surgical procedure. A flask containing the resulting solution was sealed with a drop of silicone oil (STEP-E[…], Ukraine) and placed in a refrigerator.\nAn animal, anesthetized using a mixture of ketamine (75 mg/kg, diluted in sterile water for injection, Sigma, USA) and 2% xylazine ([…], Alfasan International B.V., Netherlands) administered intraperitoneally in a total volume of 1 ml, was placed in a stereotaxic apparatus (SEZH-4) modified for rats. The animal was then scalped and a trephine opening was made with an injection needle, directly into the substantia nigra (AP=−5.3; ML=±2.0; DV=−7.2). Dissolved LPS was collected into a home-made microinjector and its tip was dropped into the trephine opening.\nEndotoxin at a dose of 10 μg in a volume of 2 μl was injected in the brain tissue at a rate of […] (every 15 seconds). After endotoxin was administered, the tip of the microinjector remained in the brain tissue for 5 minutes. The microinjector was then removed and stitches were put on the scalp soft tissues of the animal. Control animals were administered 2 μl sterile 0.9% NaCl, instead of LPS (sham operated animals).\nThe percentage of destroyed dopaminergic neurons was calculated using an apomorphine test. The intensity of rotational motions of an animal to the contralateral side of the hemisphere into which endotoxin was injected was assessed. A similar motor activity was induced by systemic intraperitoneal administration of apomorphine, a dopamine receptor agonist (0.5 mg/kg, Sigma, USA). The intensity of such rotational motions for 30 minutes indicated the degree of degradation of the nigrostriatal dopamine system (SA Talanov et al., Neurophysiology 38 (2), 128-133). The number of animals in which the number of rotations increased, decreased or remained unchanged within 30 minutes between apomorphine test I and II was quantified.\nOn the 1st day of the experiment, rats were either operated to model hemi-parkinsonism or sham operated. From the 9th to the 18th day of the experiment, the animals were injected either deuterium-depleted water or the test substance, according to their allocation into groups, for 10 days. […]"}, "peritoneal macrophages": {"tested_on": "peritoneal macrophages", "assay": "Functional and phenotypic properties of peritoneal phagocytes in LPS rat models", "type": "in vivo", "settings": "animal models of PD", "protocol": "(§1) On the 1st day of the experiment, rats were either operated to model hemi-parkinsonism or sham operated. From the 9th to the 18th day of the experiment, the animals were injected either deuterium-depleted water or the test substance, according to their allocation into groups, for 10 days. On the 8th day of the experiment (before initiation of treatment—apomorphine test I) and on the 21st day of the experiment (after the end of administering the test substance —apomorphine test II) the animals underwent an apomorphine test to analyze the development of hemi-parkinsonism which correlates with the number of destroyed dopaminergic neurons. In addition, a follow-up analysis of fecal water content was carried out, i.e., before the start of treatment on the 8th day after the operation, as well as on the 21st (after the end of treatment) and the 28th day (before autopsy). On the 24th day of the experiment, behavioral tests were carried out in all groups. All animals were weighed before autopsy. […]\nTo assess the anti-inflammatory and immunomodulating effects of the test substance, microglia and peritoneal macrophages were isolated. Phenotypic and functional features of peripheral blood phagocytes were evaluated without their fractioning (using whole blood). […]\nPhagocytic activity of microglia, peritoneal macrophages and peripheral blood phagocytes was analyzed on a flow cytometer using FITC-labeled S. aureus Wood 46 cells as an object of phagocytosis. […]\nOxidative metabolism of phagocytes of various localization was analyzed by flow cytometry using the cell-permeant 2′7′-dichlorodihydrofluorescein-diacetate (DHP) (carboxy-H2DCFDA, Invitrogen, USA) which is converted by intracellular esterases to the nonfluorescent membrane-impermeable carboxy-H2DCF form.\nThe phenotypic profile of phagocytes of various localization was characterized by the expression of markers of functional maturity and metabolic polarization (CD206, CD80 and CD86), which was determined by flow cytometry and the use of monoclonal antibodies of appropriate specificity marked with fluorescent dyes (Abcam, Becton Dickinson)."}, "[3]": {"tested_on": "neuronal nitric oxide synthase", "assay": "Neuronal nitric oxide synthase expression in astrocytes in LPS rat models", "type": "in vivo", "settings": "sham operation and LPS-induced PD; 1.5 mg/kg", "protocol": "as §1"}}, "note": "“Also recorded” adds a separate entry of the source.", "data": [{"substance": "^64Zn-enriched zinc aspartate [^64Zne-asp]", "values": [{"measurement": "activation-induced T-cell apoptosis", "setting": "[1]; drug used alone", "result": "did not have any effect"}, {"measurement": "PHA (mitogen)-induced proliferative activity of T-lymphocytes", "setting": "[1]; in combination with PHA, 48 hours", "result": "stimulatory and costimulatory effects"}, {"measurement": "activation-induced T-cell apoptosis", "setting": "[1]; in combination with the mitogen", "result": "significantly decreased"}, {"measurement": "spontaneous proliferative activity of CD3+ T-lymphocytes", "setting": "[1]; used separately from PHA, 48 hours", "result": "dose-dependent weak stimulatory effect"}, {"measurement": "rats with increased number of rotations between the 1st and 2nd apomorphine tests", "setting": "[2]; 1.5 mg/kg i.v. for 10 days, 2 out of 14 animals", "result": 14.3, "unit": "%"}, {"measurement": "rats with a fewer number of rotations between the 1st and 2nd apomorphine tests", "setting": "[2]; 1.5 mg/kg i.v. for 10 days, 12 out of 14 animals", "result": 85.7, "unit": "%"}, {"measurement": "difference in the mean number of rotations between the 1st and 2nd apomorphine tests", "setting": "[2]; LPS rats, 1.5 mg/kg i.v. for 10 days, listed as 64Zn-asp, 1.5 mg/kg", "result": "no significant difference; also recorded: did not cause a significant change"}, {"measurement": "mean number of rotations, 1st apomorphine test", "setting": "[2]; LPS rats, day 8, before start of treatment", "result": "91.2±107.7", "unit": "rot./30 min"}, {"measurement": "expression of all phenotypic markers in peritoneal macrophages", "setting": "peritoneal macrophages", "result": "significant increase"}, {"measurement": "oxidative metabolism of the peritoneal exudate cells", "setting": "peritoneal macrophages", "result": "decrease"}, {"measurement": "phagocytic activity of the peritoneal exudate cells", "setting": "peritoneal macrophages", "result": "activation"}, {"measurement": "expression of nitric oxide synthase enzyme in astrocytes", "setting": "[3]", "result": "increase"}]}]}
